pKi: −log10 of the molar value.
Target: T1, N-terminally GST-tagged DLK (catalytic domain amino acid 1-520) (Homo sapiens, UniProt Q12852)
T1 construct: N-terminally GST-tagged DLK (catalytic domain amino acid 1-520); purchased Carna Bioscience
T1 sequence (Q12852 1-520): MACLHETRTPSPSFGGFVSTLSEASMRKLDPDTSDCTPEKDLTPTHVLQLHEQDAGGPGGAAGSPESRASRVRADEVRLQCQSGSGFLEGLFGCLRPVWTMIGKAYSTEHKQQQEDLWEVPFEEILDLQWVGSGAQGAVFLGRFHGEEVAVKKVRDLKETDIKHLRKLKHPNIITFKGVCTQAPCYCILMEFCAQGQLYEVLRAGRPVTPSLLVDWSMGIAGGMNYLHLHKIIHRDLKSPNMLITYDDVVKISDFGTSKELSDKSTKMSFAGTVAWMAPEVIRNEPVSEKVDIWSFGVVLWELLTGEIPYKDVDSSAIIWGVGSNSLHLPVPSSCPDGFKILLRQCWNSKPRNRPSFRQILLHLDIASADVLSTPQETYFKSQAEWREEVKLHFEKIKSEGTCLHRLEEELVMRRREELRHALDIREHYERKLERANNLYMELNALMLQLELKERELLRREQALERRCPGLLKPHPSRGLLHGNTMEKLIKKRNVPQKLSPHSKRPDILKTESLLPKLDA
Test: DLK TR-FRET inhibition assay
Format: biochemical
Conditions: 5 nM GST-DLK, 40 nM HIS-MKK4 K131M substrate, 30 μM ATP, 60 minutes at ambient temperature
Method in brief: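 Phosphorylated MKK4 was quantified by TR-FRET (Eu-labelled anti-phospho-MKK4, D2 anti-HIS; 3 h, 665 and 615 nm emission) after EDTA quench. Reactions held 5 nM GST-tagged DLK catalytic domain (1-520), 40 nM HIS-MKK4 K131M substrate, 30 μM ATP and compound (3-fold series from 20 uM), 60 min, room temperature, pH 7.5.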

SMILES | pKi
CC(C)n1nc(-c2cnc(N)c(OC(F)F)c2)cc1[C@H]1[C@@H]2CC(C)(O)C[C@@H]21 (stereo partly drawn) [compound 105, (1R,5S,6r)-6-(3-(6-amino-5-(difluoro-methoxy)pyridin-3-yl)-1-isopropyl-1H-pyrazol-5-yl)-3-methyl-bicyclo[3.1.0]hexan-3-ol] | 7.74
CC(C)n1nc(-c2cnc(N)c(C(=O)N3CCCC3)c2)cc1[C@H]1[C@@H]2C[C@@H](N3CC(F)C3)C[C@@H]21 [compound 106, (2-amino-5-(5-((1R,3s,5S,6r)-3-(3-fluoroazetidin-1-yl)bicyclo [3.1.0]hexan-6-yl)-1-isopropyl-1H-pyrazol-3-yl)pyridin-3-yl) (pyrrolidin-1-yl)methanone] | < 6.49
CC(C)n1nc(-c2cnc(N)c(C(=O)N3CCCC3)c2)cc1[C@H]1[C@@H]2C[C@H](N3CC(F)C3)C[C@@H]21 [compound 107, (2-amino-5-(5-((1R,3r,5S,6r)-3-(3-fluoroazetidin-1-yl)bicyclo [3.1.0]hexan-6-yl)-1-isopropyl-1H-pyrazol-3-yl)pyridin-3-yl) (pyrrolidin-1-yl)methanone] | < 6.49
CC(C)n1nc(-c2cnc(N)c(C(F)(F)F)c2)cc1[C@H]1[C@@H]2C[C@H](n3cccn3)C[C@@H]21 [compound 111, 5-(5-((1R,3r,5S,6r)-3-(1H-pyrazol-1-yl)bicyclo[3.1.0]hexan-6-yl)-1-isopropyl-1H-pyrazol-3-yl)-3-(trifluoromethyl)pyridin-2-amine] | 8.06
CC(C)n1nc(-c2cnc(N)c(C(F)(F)F)c2)cc1[C@H]1[C@@H]2C[C@@H](n3ccnc3)C[C@@H]21 [compound 114, 5-(5-((1R,3s,5S,6r)-3-(1H-imidazol-1-yl)bicyclo[3.1.0]hexan-6-yl)-1-isopropyl-1H-pyrazol-3-yl)-3-(trifluoromethyl)pyridin-2-amine] | 7.82
CC(C)n1nc(-c2cnc(N)c(C(F)(F)F)c2)cc1[C@H]1[C@@H]2C[C@H](n3ccnc3)C[C@@H]21 [compound 115, 5-(5-((1R,3r,5S,6r)-3-(1H-imidazol-1-yl)bicyclo[3.1.0]hexan-6-yl)-1-isopropyl-1H-pyrazol-3-yl)-3-(trifluoromethyl)pyridin-2-amine] | 8.04
CC(C)n1nc(-c2cnc(N)c(C(F)(F)F)c2)cc1[C@H]1[C@@H]2C[C@H](N3CCN(C4COC4)CC3)C[C@@H]21 [compound 116, 5-(1-isopropyl-5-((1R,3r,5S,6r)-3-(4-(oxetan-3-yl)piperazin-1-yl)bicyclo[3.1.0]hexan-6-yl)-1H-pyrazol-3-yl)-3-(trifluoromethyl) pyridin-2-amine] | 8.11
CC(C)n1nc(-c2cnc(N)c(OC(F)F)c2)cc1[C@H]1[C@@H]2C[C@H](NCC(F)(F)F)C[C@@H]21 [compound 120, 3-(difluoromethoxy)-5-(1-isopropyl-5-((1R,3r,5S,6r)-3-((2,2,2-trifluoroethyl)amino)bicyclo [3.1.0]hexan-6-yl)-1H-pyrazol-3-yl) pyridin-2-amine] | 8.16
CC(C)n1nc(-c2cnc(N)c(C(F)(F)F)c2)cc1[C@@H]1[C@@H]2C[C@@H](O)C[C@@H]21 [compound 122, (1R,3s,5S,6s)-6-(3-(6-amino-5-(trifluoromethyl)pyridin-3-yl)-1-isopropyl-1H-pyrazol-5-yl) bicyclo[3.1.0]hexan-3-ol] | < 6.49
CC(C)n1nc(-c2cnc(N)c(OC(F)F)c2)cc1[C@@H]1[C@@H]2C[C@@H](O)C[C@@H]21 [compound 123, (1R,3s,5S,6s)-6-(3-(6-amino-5-(difluoromethoxy)pyridin-3-yl)-1-isopropyl-1H-pyrazol-5-yl) bicyclo[3.1.0]hexan-3-ol] | < 6.49
CC(C)n1nc(-c2cnc(N)c(C(F)(F)F)c2)cc1[C@@H]1[C@@H]2C[C@@H](N3CC(C#N)C3)C[C@@H]21 [compound 124, 1-((1R,3s,5S,6s)-6-(3-(6-amino-5-(trifluoromethyl)pyridin-3-yl)-1-isopropyl-1H-pyrazol-5-yl)bicyclo[3.1.0]hexan-3-yl) azetidine-3-carbonitrile] | < 5.80
CC(C)n1nc(-c2cnc(N)c(OC(F)(F)F)c2)cc1[C@@H]1[C@@H]2C[C@H](N3CCOCC3)C[C@@H]21 [compound 125, 5-(1-isopropyl-5-((1R,3r,5S,6s)-3-morpholinobicyclo[3.1.0]hexan-6-yl)-1H-pyrazol-3-yl)-3-(trifluoro-methoxy)pyridin-2-amine] | < 5.80

Molecules with a higher pKi, results first:

pKi | SMILES
8.18 | CC(C)n1nc(-c2cnc(N)c(OC(F)F)c2)cc1[C@H]1[C@@H]2C[C@@H](NCC(F)(F)F)C[C@@H]21 [compound 121, 3-(difluoromethoxy)-5-(1-isopropyl-5-((1R,3s,5S,6r)-3-((2,2,2-trifluoroethyl)amino)bicyclo [3.1.0]hexan-6-yl)-1H-pyrazol-3-yl) pyridin-2-amine]
8.18 | CC(C)n1nc(-c2cnc(N)c(OC(F)F)c2)cc1[C@H]1[C@@H]2C[C@@H](N3C[C@@H](F)[C@@H](F)C3)C[C@@H]21 [compound 119, 3-(difluoromethoxy)-5-(5-((1R, 3s,5S,6R)-3-((3S,4R)-3,4-difluoro-pyrrolidin-1-yl)bicyclo[3.1.0]hexan-6-yl)-1-isopropyl-1H-pyrazol-3-yl)pyridin-2-amine]
8.23 | CC(C)n1nc(-c2cnc(N)c(C(F)(F)F)c2)cc1[C@H]1[C@@H]2C[C@@H](N3CCO[C@@H](C)C3)C[C@@H]21 [compound 112, 5-(1-isopropyl-5-((1R,3s,5S,6S)-3-((S)-2-methylmorpholino)bicyclo[3.1.0]hexan-6-yl)-1H-pyrazol-3-yl)-3-(trifluoromethyl) pyridin-2-amine]
8.28 | CC(C)n1nc(-c2cnc(N)c(C(F)(F)F)c2)cc1[C@H]1[C@@H]2C[C@@H](N3CCN(C4COC4)CC3)C[C@@H]21 [compound 117, 5-(1-isopropyl-5-((1R,3s,5S,6r)-3-(4-(oxetan-3-yl)piperazin-1-yl)bicyclo[3.1.0]hexan-6-yl)-1H-pyrazol-3-yl)-3-(trifluoromethyl) pyridin-2-amine]
8.37 | CC(C)n1nc(-c2cnc(N)c(OC(F)(F)F)c2)cc1[C@H]1[C@@H]2C[C@@H](N3CCO[C@@H](C)C3)C[C@@H]21 [compound 113, 5-(1-isopropyl-5-((1R,3s,5S,6S)-3-((S)-2-methylmorpholino)bicyclo[3.1.0]hexan-6-yl)-1H-pyrazol-3-yl)-3-(trifluoromethoxy) pyridin-2-amine]
8.41 | CC(C)n1nc(-c2cnc(N)c(C(F)(F)F)c2)cc1[C@H]1[C@@H]2C[C@@H](n3cccn3)C[C@@H]21 [compound 110, 5-(5-((1R,3s,5S,6r)-3-(1H-pyrazol-1-yl)bicyclo[3.1.0]hexan-6-yl)-1-isopropyl-1H-pyrazol-3-yl)-3-(trifluoromethyl)pyridin-2-amine]
8.43 | CC(C)n1nc(-c2cnc(N)c(OC(F)F)c2)cc1[C@H]1[C@@H]2C[C@H](N3C[C@@H](F)[C@@H](F)C3)C[C@@H]21 [compound 118, 3-(difluoromethoxy)-5-(5-((1R,3r,5S,6R)-3-((3S,4R)-3,4-difluoro-pyrrolidin-1-yl)bicyclo[3.1.0]hexan-6-yl)-1-isopropyl-1H-pyrazol-3-yl)pyridin-2-amine]
8.61 | CC(C)n1nc(-c2cnc(N)c(OC(F)(F)F)c2)cc1[C@H]1[C@@H]2C[C@@H](N3CCOC[C@@H]3C)C[C@@H]21 [compound 104, 5-(1-isopropyl-5-((1R,3s,5S,6S)-3-((S)-3-methylmorpholino)bicyclo[3.1.0]hexan-6-yl)-1H-pyrazol-3-yl)-3-(trifluoromethoxy) pyridin-2-amine]
8.80 | CC(C)n1nc(-c2cnc(N)c(C(F)(F)F)c2)cc1[C@H]1[C@@H]2C[C@H](N3CCO[C@@H](C)C3)C[C@@H]21 [compound 108, 5-(1-isopropyl-5-((1R,3r,5S,6S)-3-((S)-2-methylmorpholino)bicyclo[3.1.0]hexan-6-yl)-1H-pyrazol-3-yl)-3-(trifluoromethyl) pyridin-2-amine]
8.80 | CC(C)n1nc(-c2cnc(N)c(OC(F)(F)F)c2)cc1[C@H]1[C@@H]2C[C@H](N3CCO[C@@H](C)C3)C[C@@H]21 [compound 109, 5-(1-isopropyl-5-((1R,3r,5S,6S)-3-((S)-2-methylmorpholino)bicyclo[3.1.0]hexan-6-yl)-1H-pyrazol-3-yl)-3-(trifluoromethoxy) pyridin-2-amine]
8.89 | CC(C)n1nc(-c2cnc(N)c(C(F)(F)F)c2)cc1[C@H]1[C@@H]2C[C@@H](N3CCOC[C@@H]3C)C[C@@H]21 [compound 103, 5-(1-isopropyl-5-((1R,3s,5S,6S)-3-((S)-3-methylmorpholino)bicyclo[3.1.0]hexan-6-yl)-1H-pyrazol-3-yl)-3-(trifluoromethyl) pyridin-2-amine]
9.10 | CC(C)n1nc(-c2cnc(N)c(C(F)(F)F)c2)cc1[C@H]1[C@@H]2C[C@@H](N3CCCOCC3)C[C@@H]21 [compound 102, 5-(5-((1R,3s,5S,6r)-3-(1,4-oxazepan-4-yl)bicyclo[3.1.0]hexan-6-yl)-1-isopropyl-1H-pyrazol-3-yl)-3-(trifluoromethyl)pyridin-2-amine]
